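The compound was tested at five concentrations on cells cultured in 96-well plates, with a 48-hour exposure period. The concentration for 50% growth inhibition is given as GI50.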 Calls of active or inactive are those of the source. Rule as the data show it: active = GI50 up to about 1.1 µM and inactive = higher.
Assays:
Experiment in all cases: NCI anticancer screen, dose series, 48 h
UACC-62 = system: UACC-62
SF-268 = system: SF-268
A498 = system: A498
OVCAR-8 = system: OVCAR-8
HCC 2998 = system: HCC 2998
MOLT-4 = system: MOLT-4
MDA-MB-231 = system: MDA-MB-231
IGROV-1 = system: IGROV-1
CAKI-1 = system: CAKI-1
Malme-3M = system: Malme-3M
MDA-MB-435 = system: MDA-MB-435
HOP-62 = system: HOP-62
HCT-15 = system: HCT-15
TK-10 = system: TK-10
SK-OV-3 = system: SK-OV-3
SNB-75 = system: SNB-75
SNB-19 = system: SNB-19
HL-60 = system: HL-60

SMILES | GI50 (UACC-62) | GI50 (SF-268) | GI50 (A498) | GI50 (OVCAR-8) | GI50 (HCC 2998) | GI50 (MOLT-4) | GI50 (MDA-MB-231) | GI50 (IGROV-1) | GI50 (CAKI-1) | GI50 (Malme-3M) | GI50 (MDA-MB-435) | GI50 (HOP-62) | GI50 (HCT-15) [µM] | GI50 (TK-10) | GI50 (SK-OV-3) | GI50 (SNB-75) | GI50 (SNB-19) | GI50 (HL-60)
COc1ccc(OC)c([N+](=O)[O-])c1-c1nc2sc(C)cn2c1/C=N/N=C(N)N | 22.7 µM (inactive) | 27.6 µM (inactive) | 34.7 µM (inactive) | 25.7 µM (inactive) | 20.6 µM (inactive) | < 0.01 µM (active) | 23.7 µM (inactive) | 14.5 µM (inactive) | 28.7 µM (inactive) | 19.1 µM (inactive) | 20.1 µM (inactive) | 43.5 µM (inactive) | > 100 | 20.6 µM (inactive) |  |  |  | 
O=[N+]([O-])C(C(Cl)=C(Cl)Cl)=C(n1cncn1)n1cncn1 | 39.9 µM (inactive) | 17.1 µM (inactive) | > 100 µM (inactive) | 19.2 µM (inactive) | > 58.3 µM (inactive) | > 33 µM (inactive) | 19.5 µM (inactive) | 16.6 µM (inactive) | 5.47 µM (inactive) | 16.4 µM (inactive) | 30.8 µM (inactive) | > 75.2 µM (inactive) | 17.8 | 25.7 µM (inactive) | > 100 µM (inactive) | > 44.2 µM (inactive) | > 100 µM (inactive) | 
CSc1cnc2ccccc2c1Sc1cn(C)c2ccccc2c1=O | 21.9 µM (inactive) | 9.14 µM (inactive) | 36.2 µM (inactive) | 18.5 µM (inactive) | 70.8 µM (inactive) | 53.2 µM (inactive) |  | 18.7 µM (inactive) |  | > 100 µM (inactive) |  | 18 µM (inactive) | 35.8 | > 100 µM (inactive) | 17.6 µM (inactive) | 17 µM (inactive) | 19.1 µM (inactive) | 16 µM (inactive)
Cc1[nH]c2ccccc2c1C1=CC(=O)N(c2ccccc2)C1=O | 9.82 µM (inactive) | 15.8 µM (inactive) | 9.71 µM (inactive) | 14.8 µM (inactive) | 1.75 µM (inactive) | 36.2 µM (inactive) | 28.2 µM (inactive) | 32.1 µM (inactive) | 6.22 µM (inactive) | 13.9 µM (inactive) | 15.6 µM (inactive) | 7.98 µM (inactive) | 7.76 | 11.1 µM (inactive) | 34.3 µM (inactive) |  | 22.1 µM (inactive) | 10.7 µM (inactive)
CCOC(=O)NNC(=O)C1CSC(c2ccccc2)N1C(C)=O (stereo not given) | > 100 µM (inactive) | > 100 µM (inactive) | > 100 µM (inactive) | > 100 µM (inactive) | > 100 µM (inactive) | > 100 µM (inactive) | > 100 µM (inactive) | > 100 µM (inactive) | > 100 µM (inactive) | > 100 µM (inactive) | > 100 µM (inactive) | > 100 µM (inactive) | > 100 | > 100 µM (inactive) | > 100 µM (inactive) | > 100 µM (inactive) | > 100 µM (inactive) | > 100 µM (inactive)
COc1ccc(CCNC(=O)[C@H]2CCCC[C@@H]2CCO)cc1OC | > 100 µM (inactive) | > 100 µM (inactive) | > 100 µM (inactive) | > 100 µM (inactive) | > 100 µM (inactive) | > 100 µM (inactive) | > 100 µM (inactive) | > 100 µM (inactive) | > 100 µM (inactive) |  | > 100 µM (inactive) | > 100 µM (inactive) | > 100 | > 100 µM (inactive) | > 100 µM (inactive) | 88.7 µM (inactive) | > 100 µM (inactive) | > 100 µM (inactive)
COc1ccc(OC)c(C#Cc2ccc(OC)c(C(=O)NCCc3ccc(F)cc3)c2)c1 |  | > 100 µM (inactive) | 9.84 µM (inactive) | > 100 µM (inactive) | 2.27 µM (inactive) | 2.19 µM (inactive) |  | 3.53 µM (inactive) | > 100 µM (inactive) |  | 1.23 µM (inactive) |  | 4.45 | > 100 µM (inactive) |  |  | 61.2 µM (inactive) | 5.13 µM (inactive)

Source: ChEMBL document CHEMBL1201862, “PubChem BioAssay data set” (2004)
